Source: patent US20130230459A1, “RADIOLABELLED mGluR2 PET LIGANDS” (Janssen Pharmaceuticals, Inc., priority 2010, published 2013)
Where “and” joins values, the source holds several entries; their conditions need not be identical. Identical values can stand only once.

How the values were obtained:
Type in all cases: in vivo, Wistar rats
[1] = Biodistribution studies of 11C tracers; settings: for SUV Blood / SUV Cerebellum / SUV Cerebrum total / SUV Cortex / SUV Hippocampus / SUV Striatum: normalized for body weight
Method: Biodistribution studies were carried out in healthy male Wistar rats (body weight 200-450 g) at 2 min, 30 min and 60 min post injection (p.i.) (n=3/time point). Rats were injected with about 11 MBq (2 min, 30 min analysis) or 22 MBq (60 min analysis) of the tracer via tail vein under anesthesia (2.5% isoflurane in O2 at 1 L/min flow rate) and sacrificed by decapitation at above specified time points. Blood and major organs were collected in tared tubes and weighed. The radioactivity in blood, organs and other body parts was measured using an automated gamma counter. The distribution of radioactivity in different parts of the body at different time points p.i. of the tracer was calculated and expressed as percentage of injected dose (% ID), and as percentage of injected dose per gram tissue (% ID/g) for the selected organs. % ID is calculated as cpm in organ/total cpm recovered. For calculation of total radioactivity in blood, blood mass was assumed to be 7% of the body mass.

[2] = Plasma radiometabolite analysis (30 min p.i.); settings: n = 2
Method: The metabolic stability of [^11C]B-4, [^11C]B-2, [^11C]B-7, and [^11C]B-10 was studied in healthy male Wistar rats by determination of the relative amounts of parent tracer and radiometabolites in plasma at 30 min p.i. of the tracer. After intravenous (i.v.) administration of about 74 MBq of the radioligand via tail vein under anesthesia (2.5% Isoflurane in O2 at 1 L/min flow rate), rats were sacrificed by decapitation at 30 min p.i. (n=2). Blood was collected in heparin containing tubes (4.5 mL LH PST tubes; BD vacutainer, BD, Franklin Lakes, N.J., USA) and stored on ice to stop the metabolism. Next, the blood was centrifuged for 5 min at 3000 rpm to separate the plasma. About 0.5 mL of plasma was spiked with about 10 μg of the authentic non-radioactive compound (1 mg/mL solution) and injected on to HPLC, which was connected to a Chromolith® performance column (C18, 3 mm×100 mm, Merck KGaA, Darmstadt, Germany). The mobile phase consisted of 0.05 M NaOAc buffer (pH 5.5) (solution A) and CH3CN (solvent B). The following method was used for the analysis: isocratic elution with 100% A for 4 min at a flow rate of 0.5 mL/min, linear gradient to 90% B by 9 min at a flow rate of 1 mL/min, and isocratic elution with mixture of 10% A and 90% B until 12 min. After passing through the UV detector (254 nm), the HPLC eluate was collected as 1 mL fractions (fraction collection each minute) using an automatic fraction collector and the radioactivity of these fractions was measured using an automated gamma counter.

[3] = Perfused brain radiometabolite analysis (30 min p.i.)
Method: The relative amounts of parent tracer and radiometabolites in perfused cerebellum and cerebrum at 30 min p.i. of the tracer was determined in healthy male Wistar rats for [^11C]B-4, [^11C]B-2, [^11C]B-7, and [^11C]B-10. After i.v. administration of about 74 MBq of the radioligand via tail vein under anesthesia (2.5% Isoflurane in O2 at 1 L/min flow rate), rats were sacrificed by administering an overdose of Nembutal (CEVA Santé Animale, 200 mg/kg intraperitoneal). When breathing had stopped, the rats were perfused with saline (Mini Plasco®, Braun, Melsungen, Germany) until the liver turned pale. Brain was isolated, cerebrum and cerebellum were separated and homogenized in 3 mL and 2 mL of CH3CN, respectively, for about 2 min. A volume of 1 mL of this homogenate was diluted with an equal volume of water and a part of this homogenate was filtered through a 0.22 μm filter (Millipore, Bedford, USA). About 0.5 mL of the filtrate was diluted with 0.1 mL of water and spiked with 10 μg of authentic non-radioactive compound (1 mg/mL solution) for identification of the intact tracer. The cerebrum/cerebellum extract was then injected onto an HPLC system consisting of an analytical XBridge® column (C18, 5 μM, 3 mm×100 mm, Waters) eluted with a mixture of 0.05 M NaOAc buffer (pH 5.5) and CH3CN (60:40 v/v) at a flow rate of 0.8 mL/min. The HPLC eluate was collected as 1 mL fractions (fraction collection each minute) after passing through the UV detector (254 nm), and the radioactivity in the fractions was measured using an automated gamma counter.

## [11CH3]Oc1c(F)ccc(F)c1C1CCN(c2ccn3c(CC4CC4)nnc3c2Cl)CC1 [[^11C]B-2, 8-chloro-3-(cyclopropylmethyl)-7-[4-(3,6-difluoro-2-[^11C]methoxyphenyl)-1-piperidinyl]-1,2,4-triazolo[4,3-a]pyridine]
[1]; 2 min p.i.
  % ID Blood: 4.3 % ID and 4.3 ± 0.6 % ID
  % ID Carcass: 38.4 ± 2.6 % ID
  % ID Cerebellum: 0.17 % ID and 0.174 ± 0.039 % ID
  % ID Cerebrum total: 0.69 % ID and 0.691 ± 0.146 % ID
  % ID Cortex: 0.097 ± 0.019 % ID
  % ID Heart: 4.6 ± 0.6 % ID
  % ID Hippocampus: 0.028 ± 0.008 % ID
  % ID Intestines: 8.5 ± 0.3 % ID
  % ID Kidneys: 6.6 ± 0.7 % ID
  % ID Liver: 33.5 ± 1.4 % ID
  % ID Lungs: 1.5 ± 0.1 % ID
  % ID Rest of cerebrum: 0.535 ± 0.121 % ID
  % ID Spleen + Pancreas: 1.4 ± 0.1 % ID
  % ID Stomach: 1.4 ± 0.2 % ID
  % ID Striatum: 0.032 ± 0.008 % ID
  % ID Urine: 0.1 ± 0.0 % ID
  Total brain uptake: 0.88 % ID and 0.88 ± 0.2 % ID
  SUV Blood: 0.60 ± 0.01
  SUV Cerebellum: 1.59 ± 0.03
  SUV Cerebrum total: 1.32 ± 0.03
  SUV Cortex: 1.46 ± 0.03
  SUV Hippocampus: 0.90 ± 0.01
  SUV Striatum: 1.22 and 1.22 ± 0.02
[1]; 30 min p.i.
  % ID Blood: 2.7 ± 0.9 % ID
  % ID Carcass: 50.9 ± 3.4 % ID
  % ID Cerebellum: 0.291 ± 0.088 % ID
  % ID Cerebrum total: 0.914 ± 0.140 % ID
  % ID Cortex: 0.118 ± 0.041 % ID
  % ID Heart: 2.5 ± 0.8 % ID
  % ID Hippocampus: 0.045 ± 0.005 % ID
  % ID Intestines: 10.4 ± 1.2 % ID
  % ID Kidneys: 4.3 ± 1.0 % ID
  % ID Liver: 22.7 ± 3.0 % ID
  % ID Lungs: 1.1 ± 0.5 % ID
  % ID Rest of cerebrum: 0.704 ± 0.112 % ID
  % ID Spleen + Pancreas: 1.4 ± 0.2 % ID
  % ID Stomach: 3.7 ± 0.3 % ID
  % ID Striatum: 0.047 ± 0.008 % ID
  % ID Urine: 0.3 ± 0.1 % ID
  Total brain uptake: 1.23 ± 0.2 % ID
  SUV Blood: 0.40 ± 0.01
  SUV Cerebellum: 2.62 and 2.62 ± 0.04
  SUV Cerebrum total: 1.96 ± 0.03
  SUV Cortex: 1.77 ± 0.04
  SUV Hippocampus: 1.49 ± 0.03
  SUV Striatum: 2.14 and 2.14 ± 0.04
[1]; 60 min p.i.
  % ID Blood: 2.0 % ID and 2.0 ± 0.0 % ID
  % ID Carcass: 55.8 ± 9.4 % ID
  % ID Cerebellum: 0.142 ± 0.029 % ID
  % ID Cerebrum total: 0.558 ± 0.042 % ID
  % ID Cortex: 0.080 ± 0.022 % ID
  % ID Heart: 1.2 ± 0.2 % ID
  % ID Hippocampus: 0.024 ± 0.006 % ID
  % ID Intestines: 15.6 ± 2.7 % ID
  % ID Kidneys: 2.1 ± 0.2 % ID
  % ID Liver: 20.1 ± 7.0 % ID
  % ID Lungs: 0.6 ± 0.1 % ID
  % ID Rest of cerebrum: 0.421 ± 0.010 % ID
  % ID Spleen + Pancreas: 0.7 ± 0.0 % ID
  % ID Stomach: 1.7 ± 0.4 % ID
  % ID Striatum: 0.033 ± 0.008 % ID
  % ID Urine: 0.3 ± 0.1 % ID
  % ID present in liver and intestines: 35.7 % ID
  % ID present in the urinary system: 2.4 % ID
  Total brain uptake: 0.71 ± 0.0 % ID
  SUV Blood: 0.30 ± 0.01
  SUV Cerebellum: 1.75 ± 0.04
  SUV Cerebrum total: 1.11 ± 0.06
  SUV Cortex: 1.28 ± 0.02
  SUV Hippocampus: 0.73 ± 0.06
  SUV Striatum: 1.72 ± 0.02
[1]; at all time points examined
  % ID present in the carcass: ~50 % ID
[2]
  Intact tracer in rat plasma: 70% and 69.7 ± 5.1%
  Polar metabolites in rat plasma: 30.3 ± 5.1%
[3]
  intact tracer in perfused cerebellum: 95.5 ± 1.3%
  intact tracer in perfused cerebrum: 90.3 ± 0.3%
  polar metabolite in perfused cerebellum: 4.1 ± 1.5%
  polar metabolite in perfused cerebrum: 9.7 ± 0.3%
  recovered radioactivity present as intact tracer, on average, in both cerebrum and cerebellum: about 90%
